Non-standard residues stand in square brackets, D forms with d. Residues, ends and D or L forms follow the SMILES beside them. Aib = CC(C)(N)C(=O)O
Molecular target: hGLP-1R (Homo sapiens, UniProt P43220)
Experiment: Cell agonistic activity at GLP-1 receptor (Example 7)
Format: cell-based

hGLP-1R, sequence (P43220 24-463): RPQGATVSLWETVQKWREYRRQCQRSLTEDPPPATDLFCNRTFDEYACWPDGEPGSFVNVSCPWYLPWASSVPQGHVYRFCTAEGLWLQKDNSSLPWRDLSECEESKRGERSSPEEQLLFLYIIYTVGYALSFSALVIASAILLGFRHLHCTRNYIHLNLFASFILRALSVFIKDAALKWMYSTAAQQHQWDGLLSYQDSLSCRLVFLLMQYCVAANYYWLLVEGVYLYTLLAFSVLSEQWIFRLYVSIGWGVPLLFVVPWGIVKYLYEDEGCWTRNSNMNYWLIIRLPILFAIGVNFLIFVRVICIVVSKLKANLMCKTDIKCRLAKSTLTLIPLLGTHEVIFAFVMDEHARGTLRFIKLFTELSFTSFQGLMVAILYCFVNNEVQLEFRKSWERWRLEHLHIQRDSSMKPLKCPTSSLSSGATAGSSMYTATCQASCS

`CC[C@H](C)[C@H](NC(=O)[C@H](CO)NC(=O)[C@H](Cc1ccc(O)cc1)NC(=O)[C@H](CC(=O)O)NC(=O)[C@H](CO)NC(=O)[C@@H](NC(=O)[C@H](Cc1ccccc1)NC(=O)[C@@H](NC(=O)CNC(=O)[C@H](CCC(=O)O)NC(=O)C(C)(C)NC(=O)[C@@H](N)Cc1ccc(O)cc1)[C@@H](C)O)[C@@H](C)CC)C(=O)N[C@@H](C)C(=O)N[C@@H](CC(C)C)C(=O)N[C@@H](CC(=O)O)C(=O)N[C@@H](CCC(=O)O)C(=O)N[C@H](C(=O)N[C@@H](Cc1c[nH]cn1)C(=O)N[C@@H](CCC(N)=O)C(=O)N[C@@H](CCCCN)C(=O)N[C@@H](CC(=O)O)C(=O)N[C@@H](Cc1ccccc1)C(=O)N[C@H](C(=O)N[C@@H](CCCCN)C(=O)N[C@@H](Cc1c[nH]c2ccccc12)C(=O)N[C@@H](CC(C)C)C(=O)N[C@@H](CC(C)C)C(=O)N[C@@H](C)C(=O)N[C@@H](CCC(N)=O)C(=O)N[C@@H](CCCCN)C(=O)NCC(=O)O)C(C)C)[C@@H](C)CC` [Sequence 4] (H-Y[Aib]EGTFISDYSIALDEIHQKDFVKWLLAQKG-OH; N-terminus and C-terminus assumed) was tested, and the EC50 was greater than 0.1 nM.

For `CC[C@H](C)[C@H](NC(=O)[C@H](CO)NC(=O)[C@H](Cc1ccc(O)cc1)NC(=O)[C@H](CC(=O)O)NC(=O)[C@H](CO)NC(=O)[C@@H](NC(=O)[C@H](Cc1ccccc1)NC(=O)[C@@H](NC(=O)CNC(=O)[C@H](CCC(=O)O)NC(=O)C(C)(C)NC(=O)[C@@H](N)Cc1ccc(O)cc1)[C@@H](C)O)[C@@H](C)CC)C(=O)N[C@@H](C)C(=O)N[C@@H](CC(C)C)C(=O)N[C@@H](CC(=O)O)C(=O)N[C@@H](CCCNC(=N)N)C(=O)N[C@H](C(=O)N[C@@H](Cc1c[nH]cn1)C(=O)N[C@@H](CCC(N)=O)C(=O)N[C@@H](CCC(N)=O)C(=O)N[C@@H](CC(=O)O)C(=O)N[C@@H](Cc1ccccc1)C(=O)N[C@H](C(=O)N[C@@H](CC(N)=O)C(=O)N[C@@H](Cc1c[nH]c2ccccc12)C(=O)N[C@@H](CC(C)C)C(=O)N[C@@H](CC(C)C)C(=O)N[C@@H](C)C(=O)N[C@@H](CCC(N)=O)C(=O)N[C@@H](CCCCN)C(=O)NCC(=O)O)C(C)C)[C@@H](C)CC` [Sequence 14] (H-Y[Aib]EGTFISDYSIALDRIHQQDFVNWLLAQKG-OH; N-terminus and C-terminus assumed), the EC50 was greater than 0.1 nM.

Compound `CC[C@H](C)[C@H](NC(=O)[C@H](CCC(=O)O)NC(=O)[C@H](CC(=O)O)NC(=O)[C@H](CC(C)C)NC(=O)C(C)(C)NC(=O)[C@@H](NC(=O)[C@H](CO)NC(=O)[C@H](Cc1ccc(O)cc1)NC(=O)[C@H](CC(=O)O)NC(=O)[C@H](CO)NC(=O)[C@@H](NC(=O)[C@H](Cc1ccccc1)NC(=O)[C@@H](NC(=O)CNC(=O)[C@H](CCC(=O)O)NC(=O)C(C)(C)NC(=O)[C@@H](N)Cc1ccc(O)cc1)[C@@H](C)O)[C@@H](C)CC)[C@@H](C)CC)C(=O)N[C@@H](Cc1c[nH]cn1)C(=O)N[C@@H](CCC(N)=O)C(=O)N[C@@H](CCCCN)C(=O)N[C@@H](CC(=O)O)C(=O)N[C@@H](Cc1ccccc1)C(=O)N[C@H](C(=O)N[C@@H](CCCCN)C(=O)N[C@@H](Cc1c[nH]c2ccccc12)C(=O)N[C@@H](CC(C)C)C(=O)N[C@@H](CC(C)C)C(=O)N[C@@H](C)C(=O)N[C@@H](CCC(N)=O)C(=O)N[C@@H](CCCCN)C(=O)NCC(=O)O)C(C)C` [Sequence 2] (H-Y[Aib]EGTFISDYSI[Aib]LDEIHQKDFVKWLLAQKG-OH; N-terminus and C-terminus assumed) has an EC50 greater than 0.1 nM.

`CC[C@H](C)[C@H](NC(=O)[C@H](CO)NC(=O)[C@H](Cc1ccc(O)cc1)NC(=O)[C@H](CC(=O)O)NC(=O)[C@H](CO)NC(=O)[C@@H](NC(=O)[C@H](Cc1ccccc1)NC(=O)[C@@H](NC(=O)CNC(=O)[C@H](CCC(=O)O)NC(=O)C(C)(C)NC(=O)[C@@H](N)Cc1ccc(O)cc1)[C@@H](C)O)[C@@H](C)CC)C(=O)N[C@@H](C)C(=O)N[C@@H](CC(C)C)C(=O)N[C@@H](CC(=O)O)C(=O)N[C@@H](CCCNC(=N)N)C(=O)N[C@@H](CC(C)C)C(=O)N[C@@H](Cc1c[nH]cn1)C(=O)N[C@@H](CCC(N)=O)C(=O)N[C@@H](CCC(=O)O)C(=O)N[C@@H](CC(=O)O)C(=O)N[C@@H](Cc1ccccc1)C(=O)N[C@H](C(=O)N[C@@H](CCCCN)C(=O)N[C@@H](Cc1c[nH]c2ccccc12)C(=O)N[C@@H](CC(C)C)C(=O)N[C@@H](CC(C)C)C(=O)N[C@@H](C)C(=O)N[C@@H](CCC(N)=O)C(=O)N[C@@H](CCCNC(=N)N)C(=O)NCC(=O)O)C(C)C` [Sequence 15] (H-Y[Aib]EGTFISDYSIALDRLHQEDFVKWLLAQRG-OH; N-terminus and C-terminus assumed) was tested, and the EC50 was greater than 0.1 nM.

Compound `CC[C@H](C)[C@H](NC(=O)[C@H](CO)NC(=O)[C@H](Cc1ccc(O)cc1)NC(=O)[C@H](CC(=O)O)NC(=O)[C@H](CO)NC(=O)[C@@H](NC(=O)[C@H](Cc1ccccc1)NC(=O)[C@@H](NC(=O)CNC(=O)[C@H](CCC(=O)O)NC(=O)C(C)(C)NC(=O)[C@@H](N)Cc1ccc(O)cc1)[C@@H](C)O)[C@@H](C)CC)C(=O)N[C@@H](C)C(=O)N[C@@H](CC(C)C)C(=O)N[C@@H](CC(=O)O)C(=O)N[C@@H](CCC(=O)O)C(=O)N[C@@H](CC(C)C)C(=O)N[C@@H](Cc1c[nH]cn1)C(=O)N[C@@H](CCC(N)=O)C(=O)N[C@@H](CCCCN)C(=O)N[C@@H](CC(=O)O)C(=O)N[C@@H](Cc1ccccc1)C(=O)N[C@H](C(=O)N[C@@H](CC(N)=O)C(=O)N[C@@H](Cc1c[nH]c2ccccc12)C(=O)N[C@@H](CC(C)C)C(=O)N[C@@H](CC(C)C)C(=O)N[C@@H](C)C(=O)N[C@@H](CCC(N)=O)C(=O)N[C@@H](CCCNC(=N)N)C(=O)NCC(=O)O)C(C)C` [Sequence 6] (H-Y[Aib]EGTFISDYSIALDELHQKDFVNWLLAQRG-OH; N-terminus and C-terminus assumed) has an EC50 greater than 0.1 nM.

`CC[C@H](C)[C@H](NC(=O)[C@H](CO)NC(=O)[C@H](Cc1ccc(O)cc1)NC(=O)[C@H](CC(=O)O)NC(=O)[C@H](CO)NC(=O)[C@@H](NC(=O)[C@H](Cc1ccccc1)NC(=O)[C@@H](NC(=O)CNC(=O)[C@H](CCC(=O)O)NC(=O)C(C)(C)NC(=O)[C@@H](N)Cc1ccc(O)cc1)[C@@H](C)O)[C@@H](C)CC)C(=O)N[C@@H](C)C(=O)N[C@@H](CC(C)C)C(=O)N[C@@H](CC(=O)O)C(=O)N[C@@H](CCCCN)C(=O)N[C@H](C(=O)N[C@@H](Cc1c[nH]cn1)C(=O)N[C@@H](CCC(N)=O)C(=O)N[C@@H](CCC(N)=O)C(=O)N[C@@H](CC(=O)O)C(=O)N[C@@H](Cc1ccccc1)C(=O)N[C@H](C(=O)N[C@@H](CC(N)=O)C(=O)N[C@@H](Cc1c[nH]c2ccccc12)C(=O)N[C@@H](CC(C)C)C(=O)N[C@@H](CC(C)C)C(=O)N[C@@H](C)C(=O)N[C@@H](CCC(N)=O)C(=O)N[C@@H](CCCNC(=N)N)C(=O)NCC(=O)O)C(C)C)[C@@H](C)CC` [Sequence 7] (H-Y[Aib]EGTFISDYSIALDKIHQQDFVNWLLAQRG-OH; N-terminus and C-terminus assumed) gave an EC50 greater than 0.1 nM.

`CC[C@H](C)[C@H](NC(=O)[C@H](CO)NC(=O)[C@H](Cc1ccc(O)cc1)NC(=O)[C@H](CC(=O)O)NC(=O)[C@H](CO)NC(=O)[C@@H](NC(=O)[C@H](Cc1ccccc1)NC(=O)[C@@H](NC(=O)CNC(=O)[C@H](CCC(=O)O)NC(=O)C(C)(C)NC(=O)[C@@H](N)Cc1ccc(O)cc1)[C@@H](C)O)[C@@H](C)CC)C(=O)N[C@@H](C)C(=O)N[C@@H](CC(C)C)C(=O)N[C@@H](CC(=O)O)C(=O)N[C@@H](CCCNC(=N)N)C(=O)N[C@H](C(=O)N[C@@H](Cc1c[nH]cn1)C(=O)N[C@@H](CCC(N)=O)C(=O)N[C@@H](CCC(=O)O)C(=O)N[C@@H](CC(=O)O)C(=O)N[C@@H](Cc1ccccc1)C(=O)N[C@H](C(=O)N[C@@H](CC(N)=O)C(=O)N[C@@H](Cc1c[nH]c2ccccc12)C(=O)N[C@@H](CC(C)C)C(=O)N[C@@H](CC(C)C)C(=O)N[C@@H](C)C(=O)N[C@@H](CCC(N)=O)C(=O)N[C@@H](CCCCN)C(=O)NCC(=O)O)C(C)C)[C@@H](C)CC` [Sequence 12] (H-Y[Aib]EGTFISDYSIALDRIHQEDFVNWLLAQKG-OH; N-terminus and C-terminus assumed) gave an EC50 greater than 0.1 nM.

Compound `CC[C@H](C)[C@H](NC(=O)[C@H](CO)NC(=O)[C@H](Cc1ccc(O)cc1)NC(=O)[C@H](CC(=O)O)NC(=O)[C@H](CO)NC(=O)[C@@H](NC(=O)[C@H](Cc1ccccc1)NC(=O)[C@@H](NC(=O)CNC(=O)[C@H](CCC(=O)O)NC(=O)C(C)(C)NC(=O)[C@@H](N)Cc1ccc(O)cc1)[C@@H](C)O)[C@@H](C)CC)C(=O)N[C@@H](C)C(=O)N[C@@H](CC(C)C)C(=O)N[C@@H](CC(=O)O)C(=O)N[C@@H](CCCCN)C(=O)N[C@H](C(=O)N[C@@H](Cc1c[nH]cn1)C(=O)N[C@@H](CCC(N)=O)C(=O)N[C@@H](CCC(=O)O)C(=O)N[C@@H](CC(=O)O)C(=O)N[C@@H](Cc1ccccc1)C(=O)N[C@H](C(=O)N[C@@H](CC(N)=O)C(=O)N[C@@H](Cc1c[nH]c2ccccc12)C(=O)N[C@@H](CC(C)C)C(=O)N[C@@H](CC(C)C)C(=O)N[C@@H](C)C(=O)N[C@@H](CCC(N)=O)C(=O)N[C@@H](CCCNC(=N)N)C(=O)NCC(=O)O)C(C)C)[C@@H](C)CC` [Sequence 9] (H-Y[Aib]EGTFISDYSIALDKIHQEDFVNWLLAQRG-OH; N-terminus and C-terminus assumed) has an EC50 greater than 0.1 nM.

With `CC[C@H](C)[C@H](NC(=O)[C@H](CO)NC(=O)[C@H](Cc1ccc(O)cc1)NC(=O)[C@H](CC(=O)O)NC(=O)[C@H](CO)NC(=O)[C@@H](NC(=O)[C@H](Cc1ccccc1)NC(=O)[C@@H](NC(=O)CNC(=O)[C@H](CCC(=O)O)NC(=O)C(C)(C)NC(=O)[C@@H](N)Cc1ccc(O)cc1)[C@@H](C)O)[C@@H](C)CC)C(=O)N[C@@H](C)C(=O)N[C@@H](CC(C)C)C(=O)N[C@@H](CC(=O)O)C(=O)N[C@@H](CCCCN)C(=O)N[C@H](C(=O)N[C@@H](Cc1c[nH]cn1)C(=O)N[C@@H](CCC(N)=O)C(=O)N[C@@H](CCC(=O)O)C(=O)N[C@@H](CC(=O)O)C(=O)N[C@@H](Cc1ccccc1)C(=O)N[C@H](C(=O)N[C@@H](CCCCN)C(=O)N[C@@H](Cc1c[nH]c2ccccc12)C(=O)N[C@@H](CC(C)C)C(=O)N[C@@H](CC(C)C)C(=O)N[C@@H](C)C(=O)N[C@@H](CCC(N)=O)C(=O)N[C@@H](CCCCN)C(=O)NCC(=O)O)C(C)C)[C@@H](C)CC` [Sequence 3] (H-Y[Aib]EGTFISDYSIALDKIHQEDFVKWLLAQKG-OH; N-terminus and C-terminus assumed) the EC50 was greater than 0.1 nM.
